What was measured:
[1] = tested on: EPCR High cell group (hematopoietic stem cells); assay: ex vivo culture of mouse EPCR High cell group for 4 days, flow cytometry and cell count; assay type: cell-based; conditions: for number of cells compared with the control: 4 days culture, FIG. 7(B); for proportion of EPCR High in hematopoietic stem cells (EPCR High phenotype): flow cytometry
Source text: The expression of c-kit and EPCR in a hematopoietic stem cell fraction (lineage: CD150+, CD48−) isolated from a mouse by using flow cytometry was checked. Among the c-kit-positive and EPCR-positive cells, a cell group of the top 30% of the EPCR-positive cells was defined as an EPCR High cell group, and a cell group of the bottom 30% of the EPCR-positive cells was defined as an EPCR Low cell group (see FIG. 1). Each cell group was transplanted into a recipient mouse, and 20 weeks later, the proportion of cells derived from the transplanted stem cells was examined in the peripheral blood (PB). In addition, at the same time, the proportion of cells derived from the transplanted stem cells was examined in the hematopoietic stem cell fraction (L-ESLAM) in the bone marrow after 20 weeks of the transplantation. The experiment was carried out twice.
As shown in FIG. 5(A), α-ketoglutaric acid (αKG), which is an intermediate metabolite of the TCA cycle, is also produced from glutamic acid or the like, and then it is supplied to the TCA cycle. In addition, in the production of a-ketoglutaric acid from glutamic acid, two pathways of a transaminase pathway and a glutamate dehydrogenase pathway are used (see FIG. 5(B)). Therefore, the proportion of EPCR High in hematopoietic stem cells was determined in a case where the EPCR High cell group was cultured for 4 days by adding each of an inhibitor R162 (30 μM) of glutamate dehydrogenase and an inhibitor aminooxyacetic acid (AOA) (50 μM) of transaminase to the culture medium, and in a case where the content of […], which is the source of glutamic acid synthesis, was set to 1/100 (0.02 mM) in FIG. 5(A) (Low Neu.).
The above-described mouse EPCR High cell group was cultured for 4 days by adding EGCG (50 μM), which is another glutamate dehydrogenase inhibitor, to a culture medium.

[2] = tested on: Human CD34+ bone marrow cells; assay: culture of human CD34+ bone marrow cells for 7 days, total cell number and flow cytometry; assay type: cell-based; conditions: R162 30 μM
Protocol: Human CD34^+ bone marrow cells (10,000 cells) were cultured for 7 days under normal culture conditions or in the presence of a glutamate dehydrogenase inhibitor R162 (30 μM), and then the total number of cells was analyzed. Then, the proportion of hematopoietic stem cells (lineage: CD34+CD38−CD90+cells) was analyzed using a flow cytometer, and from the results, the number of stem cells was estimated. FIG. 13 and FIG. 14 show the results. As shown in FIG. 14(A), it has been confirmed that the total number of cells is not changed by the presence of R162 as compared with the control, whereas as shown in FIG. 14(B), the ratio of stem cells after culturing is increased by the presence of R162.
The culture medium used for the ex vivo culture of human CD34+ bone marrow cells is a culture medium obtained by adding, to the RPMI medium, L-Alanin (4.45 mg/L), Zinc Sulfate Heptahydrate (0.432 mg/L), Cupric Sulfate Pentahydrate (0.0013 mg/L), Ferric Nitrate Nonahydrate (0.05 mg/L), Ferrous Sulfate Heptahydrate (0.417 mg/L), Linoleic acid (0.042 mg/L), Hypoxanthine (2.1 mg/L), Putrescine+2HCL (0.081 mg/L), Thioctic Acid (0.105 mg/L), Thymidine (0.365 mg/L), Sodium Pyruvate (55 mg/L), HEPES (1 mM), a penicillin-streptomycin mixed solution (Nacalai Tesque, Inc.: 26253-84) (1/100 capacity), Insulin-Transferrin-Selenium-Ethanolamine (Thermo Fisher Scientific, Inc.: 51500056) (1/100 capacity), and AlbuMAXtm I Lipid-Rich BSA (Thermo Fisher Scientific, Inc.: 11020021) (2%).

recipient mouse = assay: transplantation of cultured cell groups into a recipient mouse, proportion of donor-derived cells; assay type: in vivo
Protocol: Mouse EPCR High cells were cultured for 4 days under the normal culture conditions or in the presence of R162, and 50 cells of each of an EPCR High cell group (Control) generated under the normal culture conditions, an EPCR Low cell group (Control), and an EPCR High cell group (R162) amplified in the presence of R162 were aliquoted and then transplanted into a recipient mouse. Then, after 4 weeks and 12 weeks, the proportion of cells derived from donor cells in the peripheral blood was examined.
Further, the EPCR High cells were cultured for 4 days under the normal culture conditions and cultured for 4 days in the presence of R162, and the EPCR High cell group generated under the normal culture conditions, the EPCR Low cell group, and the EPCR High cell group (R162) amplified in the presence of R162 were each transplanted into a recipient mouse. Then, 20 weeks later, the proportion of cells derived from donor cells was examined in the peripheral blood and the hematopoietic stem cell fraction in the bone marrow (L-ESLAM (BM)).

SMILES: NOCC(=O)O [AOA, aminooxyacetic acid]
- number of cells compared with the control ([1]; AOA 50 μM): significantly reduced

SMILES: O=C(O[C@@H]1Cc2c(O)cc(O)cc2O[C@@H]1c1cc(O)c(O)c(O)c1)c1cc(O)c(O)c(O)c1 [EGCG, epigallo catechin-3-gallate]
- proportion of EPCR High in hematopoietic stem cells (EPCR High phenotype) ([1]; EGCG 50 μM in culture medium, 4 days, FIG. 15): phenotype of EPCR High is maintained

SMILES: C=CCc1ccc2c(c1O)C(=O)c1ccccc1C2=O [R162, 2-allyl-1-hydroxy-9,10-anthraquinone]
- total number of cells compared with the control ([2]; 7 days, 10,000 cells seeded, FIG. 14(A)): not changed
- ratio of stem cells (CD34+CD38−CD90+ cells) after culturing ([2]; 7 days, flow cytometer, FIG. 14(B)): increased
- number of stem cells compared with normal culture conditions ([2]; 7 days, estimated from total cell number and stem cell proportion): number of stem cells is increased
- fold induction at 30 µM ([1]; Mus musculus, Hematopoietic stem cell, 96 h, culture in the presence of R162 (30 μM), 4 days, read-out: increase in number of cells having the EPCR High phenotype compared with normal culture conditions): ~2
- proportion of EPCR High in hematopoietic stem cells (EPCR High phenotype) ([1]; R162 30 μM in culture medium, 4 days, FIG. 6/7(A)): phenotype of EPCR High is maintained
- number of cells compared with the control ([1]; R162 30 μM): about the same level as that of the control
- proportion of cells derived from donor cells in the peripheral blood (ability to reconstruct hematopoietic tissue) (recipient mouse; 50 EPCR High cells amplified 4 days in the presence of R162, transplanted, 4 weeks and 12 weeks, FIG. 8): high ability to reconstruct hematopoietic tissue, which is equivalent to the EPCR High cell group (Control)
- proportion of cells derived from donor cells in peripheral blood and bone marrow hematopoietic stem cell fraction (L-ESLAM (BM)) (recipient mouse; EPCR High cells amplified 4 days in the presence of R162, transplanted, 20 weeks, vs EPCR High and EPCR Low (Control), FIG. 12): high ability to maintain the reconstructed hematopoiesis for a longer period of time

— patent US20260286306A1, “Culture Medium, Production Method, and Cell Preparation19155704” (National University Corporation Kumamoto University, priority 2023, published 2026)
